In article PMC9515472, “The AhR ligand phthiocol and vitamin K analogs as Pseudomonas aeruginosa quorum sensing inhibitors” (Frontiers in Microbiology, 2022):
Where two headings read alike, the source gives them in different places.

Legend:
[1] = tested on: AHRR; experiment: qRT-PCR of AhR downstream gene AHRR in THP-1 cells; format: cell-based, human; conditions: for AHRR expression change in THP-1 AhR KD cells: THP-1 AhR-Knockdown (KD) cells; for AHRR transcription promoted: vs DMSO, increase
[2] = tested on: P. aeruginosa pqs QS system (pqsA-gfp); format: cell-based, Pseudomonas aeruginosa
[3] = tested on: P. aeruginosa PAO1; format: cell-based, Pseudomonas aeruginosa
[4] = tested on: CYP1B1; experiment: qRT-PCR of AhR downstream gene CYP1B1 in THP-1 cells; conditions: for CYP1B1 expression change in THP-1 AhR KD cells: THP-1 AhR-Knockdown (KD) cells
[5] = biological target: T1, human recombinant AhR protein (Homo sapiens, UniProt P35869); experiment: Microscale thermophoresis (MST) binding to AhR protein
T1 sequence (P35869 128-399): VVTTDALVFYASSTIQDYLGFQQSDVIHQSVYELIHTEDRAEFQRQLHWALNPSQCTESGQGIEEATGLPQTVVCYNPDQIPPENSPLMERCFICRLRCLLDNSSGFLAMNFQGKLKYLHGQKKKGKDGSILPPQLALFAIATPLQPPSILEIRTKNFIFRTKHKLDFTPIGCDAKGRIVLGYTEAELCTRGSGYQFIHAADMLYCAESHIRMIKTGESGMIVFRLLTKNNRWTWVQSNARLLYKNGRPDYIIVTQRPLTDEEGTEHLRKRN

[6] = tested on: P. aeruginosa pqs QS system (pqsA-gfp); format: cell-based, Pseudomonas aeruginosa; remark: listed apart in the source
[7] = tested on: P. aeruginosa PAO1 pyocyanin production; experiment: Pyocyanin quantification assay; format: cell-based, Pseudomonas aeruginosa
[8] = tested on: P. aeruginosa PAO1 biofilm formation; experiment: Biofilm formation assay (crystal violet staining); format: cell-based, Pseudomonas aeruginosa
[9] = tested on: P. aeruginosa rhamnolipid productions; format: cell-based, Pseudomonas aeruginosa; conditions: Supplementary Figure 1
[10] = biological target: PqsR binding to the pqsA promoter (Pseudomonas aeruginosa, UniProt Q9I4X0); experiment: Electrophoretic mobility shift assay (EMSA) with biotinylated pqsA promoter and cell lysates; format: biochemical; conditions: PAO1 WT cell lysates
[11] = tested on: P. aeruginosa PAO1 proteome; format: cell-based, Pseudomonas aeruginosa; conditions: Bac_Pht vs Bac
[12] = tested on: P.aeruginosa; design: method as in Shinde and Wadekar, 2018; conditions: due to metal ion chelating capacity; ref Shinde and Wadekar, 2018; cited from earlier work
[13] = 10 μM, THP-1 human monocytes, 24 h, vs DMSO alone, repression
[14] = 10 μM, THP-1 human monocytes, 24 h

Sequence of PqsR binding to the pqsA promoter (Q9I4X0 whole entry): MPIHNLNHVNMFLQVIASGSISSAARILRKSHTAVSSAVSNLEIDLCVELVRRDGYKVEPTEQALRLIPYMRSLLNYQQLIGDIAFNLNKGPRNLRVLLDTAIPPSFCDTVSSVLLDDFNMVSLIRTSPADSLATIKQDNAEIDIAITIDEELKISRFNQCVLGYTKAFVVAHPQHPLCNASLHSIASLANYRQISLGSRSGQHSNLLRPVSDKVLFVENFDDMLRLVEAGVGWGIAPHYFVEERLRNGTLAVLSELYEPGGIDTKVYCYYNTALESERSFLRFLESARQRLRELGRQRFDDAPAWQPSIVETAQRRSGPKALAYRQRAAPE

Row | Structure (SMILES) | AHRR expression change in THP-1 AhR KD cells [1] | induction of pqsA-gfp expression [2] | effect on growth of P. aeruginosa [3] | CYP1B1 expression change in THP-1 AhR KD cells [4] | Kd [5] [nM] | AHRR transcription promoted [1, 14] [fold] | inhibition of pqsA-gfp expression [6] | also measured
1 | CCCCCCCc1[nH]c2ccccc2c(=O)c1O [PQS, 2-heptyl-3-hydroxy-4 (1H)-quinolone] | no significant expression changes | induced the pqsA-gfp expression in a dose-dependent manner | could not affect the growth | no significant expression changes | 3750 |  |  | AHRR transcription repressed [1, 13]: 2.5 fold; CYP1B1 transcription repressed [4, 13]: 2.3 fold
2 | CC1=C(O)C(=O)c2ccccc2C1=O [Pht, 2-hydroxy-3-methyl-1,4-naphthoquinone] |  | not | could not affect the growth |  | 474 | 1.9 | inhibit pqsA-gfp expression in a dose-dependent manner | optimal concentration for inhibition of pqsA-gfp expression ([6]; PAO1 PpqsA-gfp strain): 750 nM; pyocyanin production [7]: suppressed by Pht to a level comparable to that of PAO1 ΔlasIΔrhlI strain and the ΔpqsC strain; biofilm formation [8]: suppressed by Pht to a level comparable to that of the PAO1 ΔlasIΔrhlI and the ΔpqsC strains; rhamnolipid production [9]: did not inhibit; effect on binding of PqsR (PAO1 cell lysates) to Bio-pqsA promoter [10]: attenuated the interaction between PAO1 cell lysates and Bio-pqsA; FC(group2_group1) ([11]; PA1768, Zn_protease domain-containing protein, pValue 0.168581, Sig 0): 0.5758; FC(group2_group1) ([11]; PA4677, Dipeptidase, pValue 0.361511, Sig 0): 0.5653; FC(group2_group1) ([11]; PA5194, acidPPc domain-containing protein, pValue 0.333715, Sig 0): 0.5551; FC(group2_group1) ([11]; PA5195, Heat shock protein 15, pValue 0.131054, Sig 0): 0.3354; FC(group2_group1) ([11]; PA5437, Probable transcriptional regulator, pValue 0.358265, Sig 0): 0.4217; anti-P.aeruginosa activity [12]: moderate; CYP1B1 transcription promoted ([4]; 10 μM, THP-1 human monocytes, 24 h, vs DMSO, increase): 2.2 fold
3 | CC1=C(C/C=C(\C)CCC[C@H](C)CCC[C@H](C)CCCC(C)C)C(=O)c2ccccc2C1=O [Vitamin K1, Phylloquinone] | no change |  | without affecting growth | no change | 1990 | 1.6 | inhibit pqsA-gfp expression dose-dependently | 
4 | CC(C)=CCC/C(C)=C/CC/C(C)=C/CC/C(C)=C/CC1=C(C)C(=O)c2ccccc2C1=O [Vitamin K2, Menaquinones] |  |  | without affecting growth |  | 586 |  | inhibit pqsA-gfp expression dose-dependently | 
5 | CC1=CC(=O)c2ccccc2C1=O [Vitamin K3, Menadione] |  |  | without affecting growth |  | 2170 |  | inhibit pqsA-gfp expression dose-dependently | 
